Results: patent US20080319031A1, “Novel Tyrosine Derivatives” (Orchid Chemicals & Pharmaceuticals Limited, priority 2005, published 2008)

What was measured:
COX-2 = molecular target: T1, COX-2 (Homo sapiens, UniProt P35354); test: COX-2 inhibition: LPS induced PGE-2 in human PBMC (ELISA); assay type: cell-based
T1 construct: LPS, also induces cycloxygenase-2 (COX-2) enzyme in this system; endogenous in cells; host or cells: human peripheral blood mononuclear cells from volunteers, LPS-stimulated
T1 sequence (P35354 18-604): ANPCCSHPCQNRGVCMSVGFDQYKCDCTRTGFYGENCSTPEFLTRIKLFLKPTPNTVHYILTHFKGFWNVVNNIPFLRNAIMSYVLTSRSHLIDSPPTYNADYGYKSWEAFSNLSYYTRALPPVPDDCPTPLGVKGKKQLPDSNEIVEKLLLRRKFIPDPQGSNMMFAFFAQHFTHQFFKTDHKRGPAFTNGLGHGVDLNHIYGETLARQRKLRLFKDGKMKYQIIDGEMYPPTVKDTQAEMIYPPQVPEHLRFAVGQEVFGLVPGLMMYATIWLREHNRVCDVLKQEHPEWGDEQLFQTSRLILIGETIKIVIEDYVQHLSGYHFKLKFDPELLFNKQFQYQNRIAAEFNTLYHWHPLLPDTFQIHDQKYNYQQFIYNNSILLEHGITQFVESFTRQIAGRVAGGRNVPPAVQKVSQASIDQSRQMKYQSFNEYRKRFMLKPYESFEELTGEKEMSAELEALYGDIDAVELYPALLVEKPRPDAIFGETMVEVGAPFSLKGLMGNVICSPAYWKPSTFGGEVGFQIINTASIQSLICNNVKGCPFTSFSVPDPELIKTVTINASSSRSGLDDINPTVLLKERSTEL
Experimental: (§1) The inflammatory stimulus, LPS, also induces cycloxygenase-2 (COX-2) enzyme in this system and as a result prostaglandin E 2 (PGE-2) is produced. Human PBMC cells were cultured and incubated with compound in example 1 at different concentrations. Cells (1×10^6/mL) were challenged with lipopolysaccharides (LPS) at a concentration of (100 ng/mL) for 20 hours. Inhibition of COX-2 was determined by the measurement of PGE-2 levels in the supernatant by ELISA (Cayman Chemicals). For the determination of PGE-2 levels, supernatants were incubated in the ELISA plate and detected by calorimetric reaction. […] The endogenous form, COX-1 is only activated when there is a physiological stimulus and goes through the same pathway for the production of PGE-2 levels. Human monocytic U-937 (2.5×10^5/mL) cells were charged with arachidonic acid to activate the COX-1 pathway. It produced PGE-2 following these kind of physiological induction. To assay the COX-1 activity, cells were preincubated with the compound for 15 min (indomethacin was kept as positive control) and then they were challenged with 10 μM arachidonic acid for next 20 min. Supernatants were harvested and measured for PGE-2 as marker of COX-1 activity.

IL-6 = IL-6 inhibition in LPS-challenged human PBMC (ELISA); assay type: cell-based; conditions: hPBMC 1×10^6/mL, LPS 100 ng/mL for 20 hours, different concentrations
Experimental: (§2) FIG. 1. TNF-α, IL-6 and IL-1β inhibition in human peripheral blood monocytic cells (hPBMC).
(§3) Human PBMC cells were cultured and incubated with compound 1 in example 1 at different concentrations. Cells (1×10^6/mL) were challenged with lipopolysaccharides (LPS) at a concentration of (100 ng/mL) for 20 hours. Cell supernatant was analyzed for the presence of TNF-α, IL-1β and IL-6 cytokines by antibody directed enzyme-linked immunoassay.

SJL/J mice = test: Experimental allergic encephalomyelitis (EAE) model of multiple sclerosis; assay type: in vivo; conditions: EAE induced by spinal chord homogenate in SJL/J mice
Experimental: Multiple Sclerosis (MS) is an autoimmune disease and is regulated by cytokine levels. In order to test the effect of compound 1 in example 1 in MS model, experimental allergic encepahalomyalitis (EAE) was induced in SJL/J mice. EAE is an autoimmune inflammatory disease of the central nervous system (CNS). […] EAE was induced by injecting spinal chord homogenate and the animals were treated with example compounds. The severity of EAE was established by clinical scores of paralysis.

[1] = system: human peripheral blood mononuclear cells; test: Cell viability of human PBMC incubated with compound; assay type: cell-based; conditions: hPBMC, highest concentration of the compound
COX-1 = molecular target: T2, COX-1 (Homo sapiens, UniProt P23219); test: COX-1 activity: arachidonic acid induced PGE-2 in U-937 cells; assay type: cell-based; conditions: 10 μM compound, 10 μM arachidonic acid 20 min
T2 construct: endogenous in cells; host or cells: U-937 human monocytic cells
Experimental: as §1

TNF-α [2] = test: TNF-α inhibition in LPS-challenged human PBMC (ELISA); assay type: cell-based; conditions: hPBMC 1×10^6/mL, LPS 100 ng/mL for 20 hours, different concentrations
Experimental: as §2, §3

IL-1β = IL-1β inhibition in LPS-challenged human PBMC (ELISA); assay type: cell-based; conditions: hPBMC 1×10^6/mL, LPS 100 ng/mL for 20 hours, different concentrations
Experimental: as §2, §3

TNF-α [3] = test: LPS induced TNF-α production in vivo; design: species or system Swiss Webster (SW) mice; conditions: one hour before LPS 10 μg/mouse ip, blood after 90 min
Experimental: FIG. 3. Compound 1 Inhibits LPS Induced TNF-α Production In Vivo.
Swiss Webster (SW) mice were orally treated with vehicle, dexamethasone (5 mg/kg bw) and compound 1 in example 1 (50 mg/kg bw) one hour before LPS injection (10 μg/mouse, ip) and blood was collected after 90 min and measured TNF-α levels by ELISA as described in FIG. 1.

MCF-7 = test: Breast cancer cell growth (MTS viability); assay type: cell-based; conditions: for inhibition of breast cancer cell growth: MCF-7, six consecutive days, MTS every 48 hrs
Experimental: MCF-7 is a breast cancer cells and they were grown in 96 well plates at 1000 cells/well. The cells were pretreated with either compound 11 in example 11 and 8 in example 8 or DMSO for six consecutive days. Every 48 hrs they were stained with MTS dye and viability was checked accordingly.

DU-145 = test: Prostate cancer cell growth (MTS viability); assay type: cell-based; conditions: DU-145, six consecutive days, MTS every 48 hrs
Experimental: DU-145 is a prostate cancer cell and they were grown in 96 well plates at 1000 cells/well. The cells were pretreated with either compound 11 in example 11 and 8 in example 8 or DMSO for six consecutive days. Every 48 hrs they were stained with MTS dye and viability was checked accordingly.

[4] = system: db/db (spontaneous model) diabetic mice; test: Blood glucose and body weight in db/db obese diabetic mice; assay type: in vivo; conditions: 50 mg/kg body weight oral in water
Experimental: FIG. 5. […] Seven weeks old male db/db (spontaneous model) diabetic mice were orally treated with compound 20 in example 20 at a dose of 50 mg/kg body weight in water and blood glucose was monitored by Accuchek glucometer.

3T3-L1 fibroblasts = test: Adipogenesis in 3T3-L1 fibroblasts (Oil-red-O staining); assay type: cell-based
Experimental: FIG. 9. Compound 20 in Example 20 is Not Adipogenic.
All known PPARγ agonists induce differentiation in fibroblast cells. The adipogenic potential of these compounds are correlated with their affinity to this receptor. To check quickly the affinity of compound 20 in example 20 to this receptors, 3T3-L1 fibroblasts were treated with either DMSO control or rosiglitazone as positive control or these two compounds for several days at different concentrations. On day 13th, the differentiated adipocytes were stained with Oil-red-O (Sigma) and washed thoroughly to remove unbound stain and visualized under Olympus microscope.

Diet induced obese mice [5] = test: Body weight in diet induced obesity mouse model; assay type: in vivo, C57BL/6J male mouse; conditions: 60% Kcal high fat diet, 50 mg/kg body weight, compared to vehicle
Experimental: FIG. 7. Effect of Compound 20 in Example 20 on Diet Induced Obesity Mouse Models. C57BL/6J male mouse were fed with 60% Kcal high fat diet (D12492, Research Diet) ad libitum 15 days prior to the beginning of the treatment. Diet induced obese mice were treated with a dose of 50 mg/kg body weight compound 20 in example 20 and their bodyweight was monitored on every third day.

Diet induced obese mice [6] = test: OGTT and serum insulin in diet induced obesity model; assay type: in vivo, C57BL/6J male mouse; conditions: day 60 of high fat feeding
Experimental: C57BL/6J male mouse were fed with 60% Kcal high fat diet (D12492, Research Diet) ad libitum 15 days prior to the beginning of the treatment. Diet induced obese mice were treated with a dose of 50 mg/kg body weight compound 20 in example 20 and their bodyweight was monitored on every third day. […] FIG. 8. Oral Glucose Tolerance Test (OGTT) in Diet Induced Obesity Model for Compound 20 in Example 20. […] To see the effect of compound 20 in example 20, on day 60 an OGTT study was carried to observe the improvement of glucose tolerance upon the treatment of compound 20 in example 20.

[7] = system: C57BL/6J male ob/ob diabetic mice; test: Blood glucose in ob/ob mice; assay type: in vivo; conditions: 50 mg/kg body weight oral in water, within six days of treatment
Experimental: FIG. 6. Lowering of Blood Glucose in ob/ob Mice by Compound 20 in Example 20. Seven weeks old C57BL/6J male ob/ob (obese, insulin resistant spontaneous model of type-II diabetes) diabetic mice were orally treated with compound 20 in example 20, at a dose of 50 mg/kg body weight dissolved in water and blood glucose (FIG. 6) was monitored by Accuchek glucometer.

HCT-116 = test: Colon cancer cell growth (MTS viability); assay type: cell-based, human; conditions: 30 μM, 48 hrs
Experimental: FIG. 10. […] HCT-116 is a human colon cancer cell line and they were grown in 96 well plates with seeding concentration of […] cells/mL.

T2 sequence (P23219 24-599): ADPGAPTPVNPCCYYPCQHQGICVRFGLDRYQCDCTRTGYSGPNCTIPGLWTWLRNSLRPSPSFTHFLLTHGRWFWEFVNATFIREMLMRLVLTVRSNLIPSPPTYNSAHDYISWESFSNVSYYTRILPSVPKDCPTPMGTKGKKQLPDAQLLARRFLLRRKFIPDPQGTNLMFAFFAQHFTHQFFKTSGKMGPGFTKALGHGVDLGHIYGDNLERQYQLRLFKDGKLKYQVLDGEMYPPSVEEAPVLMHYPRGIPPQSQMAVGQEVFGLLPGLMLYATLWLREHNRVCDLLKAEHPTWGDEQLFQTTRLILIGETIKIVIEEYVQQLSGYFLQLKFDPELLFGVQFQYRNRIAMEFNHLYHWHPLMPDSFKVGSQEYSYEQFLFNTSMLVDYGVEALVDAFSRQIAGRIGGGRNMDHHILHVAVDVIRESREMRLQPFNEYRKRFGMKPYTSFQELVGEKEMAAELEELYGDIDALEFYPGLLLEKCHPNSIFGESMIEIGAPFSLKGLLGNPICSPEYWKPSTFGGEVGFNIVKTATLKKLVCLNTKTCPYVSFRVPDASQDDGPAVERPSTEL

## COC(=O)C(N)Cc1ccc(Oc2ccc(C=C3C(=O)Nc4ccccc43)cc2)cc1.Cl (stereo not drawn) [Compound 1, Methyl-2-amino-3-(4-{4-[(2-oxo-1,2-dihydro-3H-indol-3-ylidene)methyl]phenoxy}phenyl) propanoate hydrochloride]
COX-2; 10 μM compound, hPBMC
  inhibition of LPS induced PGE-2 production: completely inhibited LPS induced PGE-2 production
COX-2; LPS induced vs arachidonic acid induced PGE-2
  selectivity on COX-2 over COX-1 activity: Selectively Inhibits COX-2 Than COX-1 Enzyme
COX-2; hPBMC, LPS 100 ng/mL for 20 hours, different concentrations
  inhibition of LPS induced COX-2 activity (PGE-2 levels): dose dependently inhibited LPS induced COX-2 activity
IL-6
  inhibition of IL-6 production: inhibit the production of three major pro-inflammatory cytokines in a dose dependent manner
SJL/J mice
  severity of EAE (clinical scores of paralysis): complete prevention of EAE
[1]
  change in cell viability: No significant change in cell viability
COX-1
  effect on arachidonic acid induced PGE-2 levels (COX-1 activity): no effect on arachidonic acid induced PGE-2 levels
TNF-α [2]
  inhibition of TNF-α production: inhibit the production of three major pro-inflammatory cytokines in a dose dependent manner
IL-1β
  inhibition of IL-1β production: inhibit the production of three major pro-inflammatory cytokines in a dose dependent manner
TNF-α [3]; 50 mg/kg bw oral
  reduction of TNF levels compared to control group: 25%

## COC(=O)C(N)Cc1ccc(Oc2ccc(C=C3C(=O)Nc4ccccc43)c(C(F)(F)F)c2)cc1.Cl (stereo not drawn) [Compound 8, Methyl-2-amino-3-(4-{3-trifluoromethyl-4-[(2-oxo-1,2-dihydro-3H-indol-3-ylidene)methyl]phenoxy}phenyl) propanoate hydrochloride]
MCF-7; MCF-7, doses from 1-50 μM
  dose dependence of breast cancer cell growth inhibition: worked equally well
MCF-7
  inhibition of breast cancer cell growth: very strong in inhibiting the breast cancer cell growth
DU-145
  inhibition of prostate cancer cell growth: selectively kills breast cancer cells

## COC(=O)C(N)Cc1ccc(Oc2ccc(CC3C(=O)Nc4ccccc43)cc2C(F)(F)F)cc1.Cl (stereo not drawn) [Compound 11, Methyl-2-amino-3-(4-{2-trifluoromethyl-4-[(2-oxo-2,3-dihydro-1H-indol-3-yl)methyl]phenoxy}phenyl) propanoate hydrochloride]
MCF-7
  inhibition of breast cancer cell growth: Inhibits Breast Cancer Cell Growth
DU-145
  inhibition of prostate cancer cell growth: very similar in both breast and prostate cancer cells

## CN(C)C(=O)[C@@H](N)Cc1ccc(Oc2ccc(/C=C3/C(=O)Nc4ccccc43)cc2)cc1.Cl [Compound 20, 2-amino-N,N-dimethyl-3-{4-[4-(2-oxo-1,2-dihydroindol-3-ylidenemethyl)-phenoxy]-phenyl}-propionamide hydrochloric acid]
[4]
  blood glucose: Reduces Blood Glucose
[4]; compared to vehicle
  body weight: lowering of body weight compared to vehicle
3T3-L1 fibroblasts; 3T3-L1, different concentrations, stained on day 13
  adipogenesis (differentiation of fibroblasts): remained unchanged
3T3-L1 fibroblasts; inferred from 3T3-L1 adipogenesis
  affinity to PPARγ receptor (indirect proof from adipogenesis): no affinity to PPARγ receptor
Diet induced obese mice [5]
  body weight gain: less body weight gain compared to vehicle treated animals
Diet induced obese mice [6]
  decrease of serum insulin level: 70%
[7]
  blood glucose: strong glucose lowering activity

## Cl.NC(=O)[C@@H](N)Cc1ccc(Oc2ccc(/C=C3/C(=O)Nc4ccccc43)cc2)cc1 [Compound 21, 2-amino-3-{4-[4-(2-oxo-1,2-dihydroindol-3-ylidenemethyl)-phenoxy]-phenyl}-propionamide hydrochloric acid]
HCT-116
  inhibition of colon cancer cell growth: completely inhibited colon cancer cell growth

## C[C@@H]1C[C@H]2[C@@H]3CCC4=CC(=O)C=C[C@]4(C)[C@@]3(F)[C@@H](O)C[C@]2(C)[C@@]1(O)C(=O)CO [dexamethasone, reference compound]
TNF-α [3]; 5 mg/kg body weight oral
  inhibition of TNF levels: 95%
